# Source: patent US8722667B2, “Compositions and methods for inhibiting the proliferation of cells” (The Regents of the University of Michigan, priority 1999, dated 2014)
# Tests used:
# Namalwa ρ0 cells = assay: ROS response in cells devoid of mtDNA; format: cell-based
# Protocol: ROS in response to Bz-423. Complexes I-IV in the MRC are partially encoded by mitochondrial DNA (mtDNA). […] Because ethidium bromide is toxic to Ramos cells, these experiments were conducted with Namalwa B cells, another mature B cell line.
# [1] = system: ornithine decarboxylase (ODC); assay: ODC activity in treated cells, conversion of 3H-ornithine to putrescine; format: cell-based; settings: cells treated 4 h
# Protocol: In these experiments, the conversion of ornithine to putrescine was quantified using ^3H-ornithine. For comparisons, control cells were treated with vehicle control or difluoromethyl ornithine (DFMO), a potent inhibitor of ornithine decarboxylase (like Bz-423, DFMO is a potent anti-proliferative agent). […] The reduction in ODC activity was paralleled by a decrease in ODC protein levels measured under the same conditions.
# As described above, Bz-423 induced apoptosis was signaled by an ROS response that arose from MRC complex III as a result of the state 3 to 4 transition. It was next sought to determine if the ROS response, critical for apoptosis, also mediated these effects on ODC. If the ROS was required for the decrease in ODC activity, it would likewise be implicated as potentially part of the anti-proliferative response to Bz-423. To test this, Ramos cells were treated with Bz-423, DFMO, or vehicle control for 4 h. In parallel, a second group of cells was pre-incubated with MnTBAP to limit the ROS and then cultured with Bz-423, DFMO, and vehicle control.
# [2] = system: isolated rat liver mitochondria; assay: ROS production in isolated mitochondria (DCF formation); format: biochemical; settings: for ROS production: mitochondria in state 4; for increase of the rate of ROS production versus control: state 3 respiration, after the induction phase
# Protocol: Male Long Evans rats are starved overnight and sacrificed by decapitation. Liver samples are homogenized in ice cold buffer A (250 mM sucrose, 10 mM Tris, 0.1 mM EGTA, pH 7.4), and nuclei and cellular debris are pelleted ([…], 830g, 4° C.). Mitochondria are collected by centrifugation (10 min, 15,000g, 4° C.), and the supernatant is collected as the S15 fraction. The mitochondrial pellet is washed three times with buffer B (250 mM sucrose, 10 mM Tris, pH 7.4), and re-suspended in buffer B at 20-30 mg/mL. Mitochondria are diluted (0.5 mg/mL) in buffer C (200 mM sucrose, 10 mM Tris, pH 7.4, 1 mM KH2PO4, 10 μM EGTA, 2.5 μM rotenone, 5 mM succinate) containing 2′,7′-dichlorodihydrofluorescin diacetate (DCFH-DA, 1 μM). For state 3 measurements, ADP (2 mM) is included in the buffer, and prior to the addition of Bz-423, mitochondria are allowed to charge for 2 min. To induce state 4, oligomycin (10 μM) is added to buffer C. […] To detect effects on O2^− and delta ψm, mitochondria are incubated for 15 min at 37° C. in buffer C with vehicle, Bz-423, or CCCP containing DHE (5 μM) or DIOC6(3) (20 nM), and aliquots are removed for analysis by fluorescence microscopy.
# O2^− production by Bz-423 may result from binding to a protein within mitochondria or a target in another compartment that signals mitochondria to generate ROS. To distinguish between these alternatives, isolated rat liver mitochondria were assayed for ROS production by monitoring the oxidation of 2′,7′-dichlorodihydrofluorescin diacetate to of 2′,7′-dichlorofluorescin in the presence and absence of Bz-423. In this assay, the rate of DCF production increased after a lag period during which endogenous reducing equivalents were consumed and the acetate moieties on the probe were hydrolyzed to yield 2′,7′-dichlorodihydrofluorescin, the redox-active species.
# Ramos cells = assay: cytotoxicity versus antiproliferation in media with 10% FBS; format: cell-based, human; settings: >20 μM
# Protocol: Like most 1,4-benzodiazepines, Bz-423 binds strongly to bovine serum albumin (BSA), which reduces the effective concentration of drug free in solution. For example, in tissue culture media containing 10% (v/v) fetal bovine serum (FBS), ca. 99% of the drug is bound to BSA. Therefore, cell culture cytotoxicity assays are conducted in media with 2% FBS to reduce binding to BSA and increase the free [Bz-423]. Under these conditions, the dose response-curve is quite sharp such that there is a limited concentration range at which Bz-423 is only partly effective. Since some benzodiazepines are known to have anti-proliferative properties, the effect of Bz-423 at concentrations <ED50 were carefully analyzed and observed that in addition to inducing apoptosis, Bz-423 prevented cell growth after 3 d in culture. In these low serum conditions, the cytotoxic and anti-proliferative effects overlapped making it difficult to study each effect independently. […] While higher amounts of drug may also block proliferation, it caused apoptosis well before the effects on proliferation could be observed.
# [3] = system: migration inhibitory factor (MIF); assay: gene expression profiling of treated cells; format: cell-based, human
# Text: In response to antigenic or mitogenic stimulation, lymphocytes secrete protein mediators, one of which is named migration inhibitory factor (MIF) for its ability to prevent the migration of macrophages in vitro. MIF may be an anti-tumor agent. In addition, the ability of MIF to prevent the migration of macrophages may be exploited for treating wounds. MIF may alter the immune response to different antigens. MIF links chemical and immunological detoxification systems. MIF was induced approximately 10-fold by Bz-423. Thus, the present invention contemplates the use of MIF as a target of the compounds of the present invention.
# In vitro testing with Ramos cells to determine the changes in gene expression (at the level of mRNA) induced by Bz-423 was performed by culturing cells at a density of 500,000 cells per ml. Solvent control (DMSO, final concentration 0.1% V/V]), Bz-423, or Bz-OMe (10 μM) was added to cells. After 4 h, cells were harvested and RNA prepared using Trizol Reagent (#15596-018, Life Technologies, Rockville, Md.) and the RNeasy Maxi Kit (#75162, Qiagen, Valencia, Calif.) according to manufacturers protocols. Single stranded cDNA was synthesized by reverse transcription using poly (A) RNA present in the starting total RNA sample. […] Hybridization results were quantified using a GeneArray scanner and analysis carried out according to the instructions provided by Affymetrix.
# B cells = assay: collapse of mitochondrial transmembrane potential, DiOC6(3); format: cell-based; settings: by 5 hours
# Protocol: To detect O2^−, cells are incubated with DHE (10 μM) for 30 min at 37° C. and are analyzed by flow cytometry to measure ethidium fluorescence. Flow analysis of mitochondrial transmembrane potential (ψm) is conducted by labeling cells with DiOC6(3) (20 nM) for 15 min at 37 degrees C. A positive control for disruption of ψm is established using carbonyl cyanide m-chlorophenylhydrazone (CCCP, 50 μM). Caspase activation assays are performed with FAM-VAD-fluoromethylketone. Processing of the substrate is evaluated by flow cytometry.
# To characterize the death mechanism engaged by Bz-423, intracellular ROS, ΔΨm, cytochrome c release, caspase activation, and DNA fragmentation were measured over time (the results presented are for B cells but do characterize the response in many different cell types). The first event detected after exposure to Bz-423 is an increase in the fraction of cells that stain with dihyroethedium (DHE), a redox-sensitive agent that reacts specifically with O2^−.
# Collapse of ΔΨm was detected using DiOC6(3), a mitochondria-selective potentiometric probe.
# [4] = system: sub-mitochondrial particles; assay: redox cycling, NADH and NAD(P)H oxidation assays with sub-mitochondrial particles; format: biochemical; settings: SMPs
# Protocol: By contrast, replacing the hydroxyl with chlorine or azide, or methylating the phenol effectively abolishes the cytotoxic activity of Bz-423. […] Such agents accept an electron from MRC enzymes and transfer it back to the chain at point of higher reducing potential. This type of ‘redox cycling’ consumes endogenous reducing equivalents (e.g., glutathione) along with […] nucleotides and results in cell death. To distinguish between these alternatives, it was determined whether Bz-423 redox cycles in the presence of sub-mitochondrial particles using standard NADH and NAD(P)H oxidation assays.
# [5] = molecular target: T1, mitochondrial F1F0-ATPase (Bos taurus, UniProt P13621); assay: ATPase activity in sub-mitochondrial particles (SMPs); format: biochemical, bovine; settings: at 80 μM
# T1 construct: from tissue
# Text: Oligomycin, a macrolide natural product that binds to the mitochondrial F1F0-ATPase, induces a state 3 to 4 transition and generates O2^− like Bz-423. Based on these similarities, it is possible that the F1F0-ATPase is also the molecular target for Bz-423. To test this hypothesis, the effect of Bz-423 on ATPase activity in sub-mitochondrial particles (SMPs) was examined.
# >40 derivatives of Bz-423 were developed to determine the elements on this novel agent required for biological activity. […] The potency of these analogues in cell based assays correlated with the ED50 values in ATPase inhibition experiments using SMPs.
# panel of cells = assay: antiproliferation of Bz-Cl against the panel of cells, 3 d; format: cell-based; settings: after 3 d
compound,measurement,setting,value
CN1C(=O)C(Cc2ccc3ccccc3c2)N=C(c2ccc(O)cc2)c2cc(Cl)ccc21 (stereo not shown) [Bz-423],ROS response,Namalwa ρ0 cells,did not result in an ROS response
same,effect on ODC activity,[1],significantly reduced ODC activity in a dose-dependant fashion
same,ROS production,[2],does not stimulate ROS
same,increase of the rate of ROS production versus control,[2],nearly two-fold
same,cellular effect observed,Ramos cells,only apoptosis was observed
same,induction of MIF,[3],approximately 10 fold
same,cells with collapse of ΔΨm,B cells,> 90 % of cells
same,substrate oxidation (redox cycling),[4],does not lead to substrate oxidation
"CN1C(=O)CN=C(c2ccc(Cl)cc2)c2cc(Cl)ccc21 [4-Cl-diazepam, 4-chlorodiazepam]",inhibition of mitochondrial ATPase activity,[5],do not significantly inhibit
CCC(C)N(C)C(=O)c1cc2ccccc2c(-c2ccccc2Cl)n1 (stereo not shown) [PK11195],inhibition of mitochondrial ATPase activity,[5],do not significantly inhibit
antimycin A [reference compound],ROS production,[2],active
same,increase of the rate of ROS production versus control,[2],nearly two-fold
CN1C(=O)C(Cc2ccc3ccccc3c2)N=C(c2ccc(Cl)cc2)c2cc(Cl)ccc21 (stereo not shown) [Bz-Cl],ED50 for reduced proliferation compared with Bz-423,panel of cells,comparable ED50 values
